Source: US20080299123A1, “TREATMENT OF CHEMOTHERAPY- OR RADIOTHERAPY-RESISTANT TUMORS” (Deutsches Krebsforschungszentrum Stiftung des offentlichen …, priority 2006, published 2008)

Legend:
[1] = test system: L1CAM; assay: L1CAM expression in PT45-P1 cells; format: cell-based, human; settings: 20 ng/mL IL1β
Experimental: (a) PT45-P1res cells were either left untreated (w/o) or treated with 250 ng/mL IL1-RA for 6 hours. In parallel, PT45-P1 cells were either left untreated (w/o) or treated with 20 ng/mL IL1β for 6 hours. L1CAM mRNA levels were analysed by real-time PCR and compared with β-actin used as control. Data from duplicate measurements are expressed as amount of mRNA in arbitrary units. Results from one representative out of three experiments are shown. (b) Cellular lysates from PT45-P1res and PT45-P1 cells were subjected to western blotting using an antibody for the detection of full-length L1CAM. PT45-P1res cells were either left untreated (w/o) or treated with 250 ng/mL IL1-RA for 24 hours. In parallel, PT45-P1 cells were either left untreated (w/o) or treated with 20 ng/mL IL1β for 24 hours. In all experiments, a HSP90 antibody was used as a control for equal protein load.
Cells were seeded into 6 well and 12 well plates, respectively, and transfected or treated as indicated. […] Protein concentrations were determined using the Dc Protein assay (BioRad). […]
2 μg of total RNA were reverse-transcribed into single-stranded cDNA, as described previously (Schafer et al., 1999). […] Data were collected during annealing steps and were further analysed by using the i-Cycler iQ Optical system software (BioRad). All samples were analysed in duplicates and data are expressed as amount of mRNA in arbitrary units.

[2] = test system: γ-secretase; assay: In vitro γ-secretase activity on membranes of CHO-hL1wt cells; format: cell-based; settings: cells preincubated 48 h with inhibitor; membranes 2 h at 37° C.
Experimental: (§1) (A) Analysis of L1-32 cleavage by γ-secretase. Cells were treated for 48 h at 37° C. with presenilin inhibitor IX (DAPT) or for control with DMSO. Isolated membranes were incubated for 2 h at 37° C. and then separated into pellet or supernatant (SN) fractions by ultracentrifugation. Lanes 1 to 2 show cells treated with DMSO (vehicle). Lanes 3 and 4 show cells preincubated with DAPT. (B) SKOV3ip cells were treated with DAPT either in the presence or absence of the metalloprotease inhibitor TAPI-0 for 24 hr. Cells were lysed in BOG lysis buffer and analyzed by Western blot analysis. The cell supernatant was analyzed for soluble L1 using mAb L1-11A and the cell lysate was examined for L1-32 using peytL1. (C) HEK293 or HEK293-hL1wt cells were treated with DMSO, DAPT, TAPI-0 or both inhibitors for 96 h. mRNA was transcribed to cDNA and analyzed by qPCR for the genes CRABPII and cathepsin B. (D) Analysis of ERK phosphorylation in SKOV3ip cells after treatment with the indicated compounds.
Consecutive cleavage by both enzymes is a hallmark of Notch, APP and CD44 signaling that is followed by translocation of the intracellular portion to the nucleus (22). To verify this observation for tumor cells, we analyzed the processing of L1-32 in more detail. […] Indeed, we detected L1-28 in the supernatant fraction (FIG. 11A, lane 2). […]

[3] = test system: cathepsin B and CRABPII transcription; assay: L1-dependent gene regulation by qPCR in HEK293-hL1wt cells; format: cell-based, human; settings: preincubation 96 h
Experimental: as §1
We next investigated whether L1-mediated gene regulation was dependent on L1-processing, by carrying out inhibition experiments. […]
mRNA was isolated using the Quiagen RNAeasy mini kit (Quiagen Hilden, Germany). […] After exposing of the hybridized membranes, the PhosphorImager screens were scanned (Fuji FLA-3000, 100 μm resolution, Fuji BAS-reader software). […]

[4] = test system: ERK phosphorylation; assay: ERK phosphorylation in SKOV3ip cells; format: cell-based, human; settings: treatment with DAPT, TAPI-0
Experimental: as §1
(§2) (A) Effect of L1-antibodies on ERK phosphorylation in SKOV3ip cells. The cells were incubated for 24 hr at 37° C. with the indicated purified antibodies to L1 (10 μg/ml) or isotype control IgG. […] Soluble L1 in the supernant and L1-32 in the cell lysate were analyzed by Western blot. (C) mRNA was isolated from antibody treated SKOV3ip cells, transcribed to cDNA and analyzed by qPCR for the indicated genes. […]

[5] = test system: L1; assay: L1 processing in SKOV3ip cells (L1-32 in lysate, soluble L1 in supernatant), Western blot; format: cell-based, human; settings: 24 hr
Experimental: as §1, §2

Compound | L1CAM expression [1] | release of L1-28 from the membrane into the supernatant [2] | L1-dependent regulation of transcription for cathepsin B and CRABPII [3] | ERK activation in treated cells [4] | L1-32 in cell lysate [5] | soluble L1 in the medium [5]
IL1β: recombinant human Interleukin 1 beta from R&D Systems | enhanced L1CAM expression | – | – | – | – | –
C[C@H](NC(=O)Cc1cc(F)cc(F)c1)C(=O)N[C@H](C(=O)OC(C)(C)C)c1ccccc1 [DAPT] | – | could not release this fragment into the supernatant | blocked | did not interfere with ERK activation | strong increase in the metalloprotease cleavage fragment L1-32 | not increased by the treatment
